Assay results from patent publication US7919506B2, “Dibenzyl amine compounds and derivatives” (Pfizer Inc., priority 2006, dated 2011).

Molecule COC1(c2ccc(C(F)(F)F)cc2CN(Cc2cc(C(F)(F)F)cc(C(F)(F)F)c2)c2nnn(C)n2)CCCCCC1 [Example 52, N-(2-(1-methoxycycloheptyl)-5-(trifluoromethyl)benzyl)-N-(3,5-bis(trifluoromethyl)benzyl)-2-methyl-2H-tetrazol-5-amine] has a melting point of 103 to 104 °C.
